Target: T1, Cytochrome P450 (CYP3A4) (Homo sapiens, UniProt P08684)
T1 construct: human liver microsome (0.1 mg protein/mL); from tissue; host or cells: human liver microsomes
Test: Measurement of cytochrome P450 (CYP3A4) enzyme inhibition activity in human liver microsome (inhibition tests I and II, midazolam substrate)
Format: in vitro ADME
Conditions: for I (%) Remaining Rate I: inhibition test I: 5 μM test compound, 2 μM midazolam, human liver microsome, 37° C. 20 minutes, no preincubation; for II (%) Remaining Rate II: inhibition test II: 5 μM test compound preincubated 30 minutes with human liver microsome and NADPH, then 2 μM midazolam 20 minutes, relative to test I
Protocol: Test Method 3: Measurement of Cytochrome P450 (CYP3A4) Enzyme Inhibition Activity i) Inhibition Test I (Calculation of Remaining Rate I)
Using a 96-well plate, 2 μM of a substrate (midazolam), 5 μM of a test compound, and human liver microsome (0.1 mg protein/mL) were incubated at 37° C. for 20 minutes in a total amount of 150 μL of a 100 mM phosphate buffer (pH 7.4) containing 0.1 mM EDTA and 1 mM NADPH. Then, the reaction was stopped by adding 130 μl of an aqueous solution containing 80% acetonitrile. Thereafter, the samples were analyzed by LC/MS/MS, and the remaining rates I were calculated using the following equation 1.
Remaining Rate I(%)=Ai,I/Ao,I×100 (Equation 1)
Ai, I=Amount of produced metabolite after reaction in the presence of the test compound in the inhibition test I Ao, I=Amount of produced metabolite after reaction in the absence of the test compound in the inhibition test I ii) Inhibition Test II (Calculation of Remaining Rate II)
Using a 96-well plate, 5 μM of a test compound and human liver microsome (0.1 mg protein/mL) were incubated at 37° C. for 30 minutes in a total amount of 145 μL of a 100 mM phosphate buffer (pH=7.4) containing 0.1 mM EDTA and 1 mM NADPH. Then, 2 μM of midazolam as the substrate was added thereto at a total amount of 150 μL of and incubated at 37° C. for 20 minutes. After the incubation, the reaction was stopped by adding 130 μL of an aqueous solution containing 80% acetonitrile. Thereafter, the samples were analyzed by LC/MS/MS, and the remaining rate II was calculated using the following equation 2.
Remaining Rate II(%)=Ai,II/Ao,II/(Ai,I/Ao,I)×100 (Equation 2)
Ai, II=Amount of produced metabolite after reaction in the presence of the test compound in the inhibition test II […]=Amount of produced metabolite after reaction in the absence of the test compound in the inhibition test II […]
Ex represents No. of the Example Compounds as described below.

T1 sequence (P08684 whole entry): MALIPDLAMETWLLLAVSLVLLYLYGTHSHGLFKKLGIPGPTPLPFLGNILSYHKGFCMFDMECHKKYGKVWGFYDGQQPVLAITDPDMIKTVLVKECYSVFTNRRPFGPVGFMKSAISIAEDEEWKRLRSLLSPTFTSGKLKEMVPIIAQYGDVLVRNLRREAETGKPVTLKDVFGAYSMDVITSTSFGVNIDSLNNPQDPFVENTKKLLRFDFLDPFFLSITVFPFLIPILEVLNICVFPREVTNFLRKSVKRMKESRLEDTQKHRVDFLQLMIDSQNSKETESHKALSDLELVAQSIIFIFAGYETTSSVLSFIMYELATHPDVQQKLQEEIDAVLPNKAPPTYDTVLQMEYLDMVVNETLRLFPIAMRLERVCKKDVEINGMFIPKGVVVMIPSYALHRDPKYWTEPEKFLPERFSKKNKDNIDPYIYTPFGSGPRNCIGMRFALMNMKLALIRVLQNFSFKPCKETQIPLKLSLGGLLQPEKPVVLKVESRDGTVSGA

SMILES | I (%) Remaining Rate I [%] | II (%) Remaining Rate II [%]
COc1ccccc1CNc1ncc(C#N)c(NC[C@]23CC4C[C@H](C2)[C@@H](N[C@H]2CC[C@H](O)CC2)[C@@H](C4)C3)n1 (relative stereo) [Example 62] | 87 | 81
CSc1ccccc1CNc1ncc(C#N)c(NC[C@]23CC4C[C@H](C2)[C@@H](NC2CCC(O)CC2)[C@@H](C4)C3)n1 (relative stereo) [Example 68, rel-4-[({(1S,3R,4S,5S)-4-[(4-hydroxycyclohexyl)amino]adamantan-1-yl}methyl)amino]-2-{[2-(methylsulfanyl)benzyl]amino}pyrimidine-5-carbonitrile] | 82 | 90
COCCN1CCC(N[C@@H]2[C@@H]3CC4C[C@H]2C[C@@](CNc2nc(NCc5ccccc5Cl)ncc2C#N)(C4)C3)CC1 (relative stereo) [Example 210] | 77 | 94
N#Cc1cnc(NCc2ccccc2Cl)nc1NC[C@]12CC3C[C@H](C1)[C@@H](NC1CCN(CCF)CC1)[C@@H](C3)C2 (relative stereo) [Example 212] | 81 | 85
N#Cc1cnc(NCc2ccccc2Cl)nc1NC[C@]12CC3C[C@H](C1)[C@@H](NCC1CCN(CCO)CC1)[C@@H](C3)C2 (relative stereo) [Example 216] | 92 | 90
N#Cc1cnc(NCc2ccccc2Cl)nc1NC[C@]12CC3C[C@H](C1)[C@@H](N[C@H]1CC[C@@H](NCCO)CC1)[C@@H](C3)C2 (relative stereo) [Example 220, rel-2-[(2-chlorobenzyl)amino]-4-({[(1R,3S,4R,5R)-4-({cis-4-[(2-hydroxyethyl)amino]cyclohexyl}amino)adamantan-1-yl]methyl}amino)pyrimidine-5-carbonitrile] | 82 | 85
CSc1ccccc1CNc1ncc(C#N)c(NC[C@]23CC4C[C@H](C2)C(NC[C@H]2CC[C@H](O)CC2)[C@@H](C4)C3)n1 (relative stereo) [Example 228] | 79 | 91
COc1ncccc1CNc1ncc(C#N)c(NC[C@]23CC4C[C@H](C2)C(N[C@H]2CC[C@H](CO)CC2)[C@@H](C4)C3)n1 (relative stereo) [Example 232] | 88 | 94
N#Cc1cnc(NCc2ccccc2Cl)nc1NC[C@]12CC3C[C@H](C1)[C@@H](NC1CCC(N4CCC[C@@H]4CO)CC1)[C@@H](C3)C2 (relative stereo) [Example 238] | 75 | 81
CN1CCC(N[C@@H]2[C@@H]3CC4C[C@H]2C[C@@](CNc2nc(NCc5ccccc5Cl)ncc2C#N)(C4)C3)CC1 (relative stereo) [Example 248] | 88 | 82
COc1ncccc1CNc1ncc(C#N)c(NC[C@]23CC4C[C@H](C2)[C@@H](NC2CCC(O)CC2)[C@@H](C4)C3)n1 (relative stereo) [Example 252] | 85 | 80
CSc1ncccc1CNc1ncc(C#N)c(NC[C@]23CC4C[C@H](C2)[C@@H](NC2CCC(O)CC2)[C@@H](C4)C3)n1 (relative stereo) [Example 258] | 88 | 90
N#Cc1cnc(NCc2ccccc2Cl)nc1NC[C@]12CC3C[C@H](C1)[C@@H](NC1CCN(C4CCOCC4)CC1)[C@@H](C3)C2 (relative stereo) [Example 266] | 83 | 99
CC(=O)N1CCC(N[C@H]2CC[C@@H](N[C@@H]3[C@@H]4CC5C[C@H]3C[C@@](CNc3nc(NCc6ccccc6Cl)ncc3C#N)(C5)C4)CC2)CC1 (relative stereo) [Example 281, rel-4-({[(1R,3S,4R,5R)-4-({cis-4-[(1-acetylpiperidin-4-yl)amino]cyclohexyl}amino)adamantan-1-yl]methyl}amino)-2-[(2-chlorobenzyl)amino]pyrimidine-5-carbonitrile] | 89 | 83
N#Cc1cnc(NCc2ccccc2Cl)nc1NC[C@]12CC3C[C@H](C1)[C@@H](N[C@H]1CC[C@@H](NC4CCOCC4)CC1)[C@@H](C3)C2 (relative stereo) [Example 282] | 81 | 91
CSc1ccccc1CNc1ncc(C#N)c(NC[C@]23CC4C[C@H](C2)[C@@H](NC2CCNCC2)[C@@H](C4)C3)n1 (relative stereo) [Example 290] | 85 | 88

SMILES | I (%) Remaining Rate I [%] | II (%) Remaining Rate II [%]
CC1(N)CCC(N[C@@H]2[C@@H]3CC4C[C@H]2C[C@@](CNc2nc(NCc5ccccc5Cl)ncc2C#N)(C4)C3)CC1 (relative stereo) [Example 314] | 85 | 84
CNC1CCC(N[C@@H]2[C@@H]3CC4C[C@H]2C[C@@](CNc2nc(NCc5ccccc5Cl)ncc2C#N)(C4)C3)CC1 (relative stereo) [Example 316] | 85 | 84
N#Cc1cnc(NCc2ccccc2OC(F)(F)F)nc1NC[C@]12CC3C[C@H](C1)[C@@H](NCC1CCNCC1)[C@@H](C3)C2 (relative stereo) [Example 329] | 92 | 95
CSc1ccccc1CNc1ncc(C#N)c(NC[C@]23CC4C[C@H](C2)[C@@H](NC[C@H]2CC[C@H](CO)CC2)[C@@H](C4)C3)n1 (relative stereo) [Example 339] | 78 | 94
COc1ncccc1CNc1ncc(C#N)c(NC[C@]23CC4C[C@H](C2)[C@@H](NC[C@H]2CC[C@H](CO)CC2)[C@@H](C4)C3)n1 (relative stereo) [Example 343] | 78 | 91
COc1ncccc1CNc1ncc(C#N)c(NC[C@]23CC4C[C@H](C2)[C@@H](NC[C@H]2CC[C@H](O)CC2)[C@@H](C4)C3)n1 (relative stereo) [Example 345] | 94 | 81
COc1ccccc1CNc1ncc(C#N)c(NC[C@]23CC4C[C@H](C2)[C@@H](NCC[C@@H](O)CO)[C@@H](C4)C3)n1 (relative stereo) [Example 352] | 94 | 81
C[C@]1(O)CC[C@H](CN[C@@H]2[C@@H]3CC4C[C@H]2C[C@@](CNc2nc(NCc5ccccc5Cl)ncc2C#N)(C4)C3)CC1 (relative stereo) [Example 370] | 81 | 85
COc1ccccc1CNc1ncc(C#N)c(NC[C@]23CC4C[C@H](C2)[C@@H](NC2CCC(C)(O)CC2)[C@@H](C4)C3)n1 (single isomer, unassigned) [Example 119] | 77 | 80
N#Cc1cnc(NCc2ccccc2Cl)nc1NC[C@]12CC3C[C@H](C1)[C@@H](NC1CCC(O)CC1)[C@@H](C3)C2 (stereo partly shown) [Example 95] | 84 | 81
N#Cc1cnc(NCc2ccccc2Cl)nc1NC[C@]12CC3C[C@H](C1)[C@@H](NC1CCN(CCO)CC1)[C@@H](C3)C2 [Example 209] | 79 | 92
CSc1ccccc1CNc1ncc(C#N)c(NC[C@]23CC4C[C@H](C2)C(NC[C@H]2CC[C@H](CO)CC2)[C@@H](C4)C3)n1 (stereo partly shown) [Example 229] | 80 | 95
CCN1CCC(N[C@@H]2[C@@H]3CC4C[C@H]2C[C@@](CNc2nc(NCc5ccccc5Cl)ncc2C#N)(C4)C3)CC1 [Example 249] | 82 | 83
N#Cc1cnc(NCc2cnccc2Cl)nc1NC[C@]12CC3C[C@H](C1)[C@@H](NC1CCC(O)CC1)[C@@H](C3)C2 (stereo partly shown) [Example 251] | 75 | 85
CSc1ccccc1CNc1ncc(C#N)c(NC[C@]23CC4C[C@H](C2)[C@@H](NC[C@H]2CC[C@H](O)CC2)[C@@H](C4)C3)n1 [Example 263] | 91 | 87
CNC1CCC(N[C@@H]2[C@@H]3CC4C[C@H]2C[C@@](CNc2nc(NCc5ccccc5Cl)ncc2C#N)(C4)C3)CC1 (stereo partly shown) [Example 315] | 85 | 86

Source: patent US20110159019A1, “2,4-DIAMINOPYRIMIDINE COMPOUND” (priority 2008, published 2011)
